Reference: patent US20250084453A1, “SYSTEMS, COMPOSITIONS AND METHODS FOR IDENTIFYING E3 LIGASE SUBSTRATES BY UBIQUITIN BIOTINYLATION” (The Broad Institute, Inc., priority 2022, published 2025)

Legend:
Type in all cases: cell-based, human
[1] = system: GSPT1; test: Streptavidin pulldown and Western blot of biotinylated ubiquitinated GSPT1 in 293T CRBN-/- CRBN-BirA cells
Method: (§1) However, instead of assessing transiently-expressed V5-tagged IKZF1, an endogenous neo-substrate of CRBN, namely, GSPT1, was assessed. […] Following incubation with the components and added agents, the cells were lysed, and streptavidin-coated beads were used to capture from the cell lysate biotinylated, ubiquitinated proteins, e.g., the endogenous GSPT1 substrate. The biotinylated proteins eluted from the beads were subjected to Western blot analyses.
The cells were either treated or untreated with carfilzomib (0.4 μM) for 1 hour and were either treated or untreated with the CRBN-IMiD modifying agent CC-885 (1 μM) for another hour. […] As discussed above in Example 1, the GSPT1 substrate of BirA-tagged CRBN is expressed endogenously in 293T cells.
The preparation of cellular lysate was as described above for Cell Lysis, except that the RIPA buffer was supplemented with COMPLETE™ EDTA-free protease inhibitor cocktail (Roche; 04693159001; 1 tablet per 10 ml of buffer), benzonase (Millipore; E1014; 1 μl per 10 ml of buffer), 1.5 mM MgCl2, 1 mM EGTA, and 10 mM NEM (N-ethylmaleimide). For each sample, 1 ml of 3 mg/ml lysate was rotated overnight at 4° C. with 50 μl of resuspended streptavidin Sepharose beads (CYTIVA™; 17511301), which were pre-washed with RIPA lysis buffer 3 times. For all steps that required pelleting of beads, centrifugation was performed at 400×g for 1 minute. On the next day, streptavidin beads were pelleted, and the supernatant (a.k.a. flow-through) was either saved for analysis by Western blotting or was discarded. Streptavidin beads were then washed two times with 1 ml of 2% SDS wash buffer (2% SDS, 25 mM Tris-HCl, pH 7.5), and three times with 0.5-1 ml of 2M urea wash buffer (2M urea, 50 mM Tris-HCl, pH 8). Between each wash, the beads were rotated at room temperature for at least 5 minutes. During the last wash, the beads and the washing buffer were transferred to a new microfuge tube. […] For mass spectrometry-based analysis, the procedures described in On-bead Digestion below were used.
On the next day, the cells were transfected using pRK5-Avi-HA-ubiquitin or pRK5-A3-HA-ubiquitin in serum-free DMEM.

[2] = system: CRBN E3 ligase; test: MS comparison of loss-of-function CRBN-BirA mutants (D249Y, W386A) with WT CRBN-BirA under CC-885; settings: CC-885 1 μM, 1 hour; D249Y and W386A; FIGS. 16A, 16B
Method: Experiments were performed to identify substrates of an E3 ligase using CRBN as a representative E3 ligase. The experiments compared loss-of-function mutants of an E3 ligase (e.g., CRBN E3 ligase) to the wildtype (WT) ligase. FIGS. 16A and 16B show the results of a mass spectrometry experiment in which protein substrates susceptible to CC-885 induced ubiquitination were identified. These experiments were performed in HEK293T^CRBN−/− cells transiently expressing A3-HA-Ub and either WT CRBN-BirA or CRBN-BirA mutant D249Y (FIG. 16A) or CRBN-BirA mutant W386A (FIG. 16B). Compared with CRBN(WT), CRBN(D249Y) had decreased association with the CRL4 complex, while CRBN(W386A) had decreased affinity for CC-885. Both mutants were expected to have a diminished ability to ubiquitinate CC-885-induced substrates. While cultured in biotin-free medium, the cells were pre-treated with carfilzomib (carf; 0.4 μM) for 1 hour, and then were treated with the IMiD derivative CC-885 (1 μM) for another hour. […] Enrichment of biotinylated species by streptavidin-coated beads, protein digestion, and protein identification and quantification by mass spectrometry were performed exactly as described in Example 3 and 4. […]

[3] = system: GSPT1; test: GSPT1 degradation by Western blot in HEK293T cells and CRBN-/- derivatives
Method: as §1

Cc1ccc(NC(=O)NCc2ccc3c(c2)CN(C2CCC(=O)NC2=O)C3=O)cc1Cl (stereo not shown) [CC-885]
Specific signal, normalized GSPT1/biotin ratios ([1]; A3-tag compared to Avi-tag, FIG. 6C): increase in specific signal
Sensitivity in detecting CC-885-induced ubiquitination of GSPT1 by CRBN ([1]; A3-tag, FIG. 6C): 36.39
Ubiquitinated GSPT1 captured by streptavidin beads compared with DMSO ([1]; Avi-HA-Ub, 1 μM, 2 hours, Western blot quantification (FIG. 5C)): 6-12 fold
Mono- and poly-ubiquitinated GSPT1 captured by streptavidin beads ([1]; Avi-HA-Ub, FIG. 5C): only observed in conditions where CC-885 was present
Sensitivity in detecting CC-885-induced ubiquitination of GSPT1 by CRBN ([1]; Avi-tag, FIG. 6C): 15.46
Induced ubiquitinated substrates revealed by decreased biotinylation with CRBN-BirA mutants versus WT [2]: GSPT1, GSPT2, VCL and CSNK1A1
GSPT1 degradation (Western blot, FIG. 5A) ([3]; 293T CRBN-/- CRBN-BirA cells with Avi-HA-Ub, 1 μM, 2 hours): degraded
GSPT1 degradation (Western blot) ([3]; 293T CRBN-/- cells expressing BirA-CRBN or CRBN-BirA, 1 μM, 4 hours): degraded
GSPT1 degradation (Western blot) ([3]; 293T CRBN-/- cells, 1 μM, 4 hours): not degraded
GSPT1 degradation (Western blot) ([3]; HEK293T cells, 10 nM, 100 nM, 1 μM or 10 μM for 3.5 hours): degraded in cells in a dose-dependent matter
